Reference: the CheMixHub viscosity set

Assay: xn = mol fraction of the nth substance listed

Oc1ccccc1 + Nc1ccccc1
101 kPa
Settings | viscosity [mPa·s]
293.15 K, x1 = 0.0786 | 5.09
293.15 K, x1 = 0.1517 | 6.1
293.15 K, x1 = 0.2315 | 7.35
293.15 K, x1 = 0.3105 | 8.89
293.15 K, x1 = 0.3914 | 10.59
293.15 K, x1 = 0.473 | 12.15
293.15 K, x1 = 0.5355 | 13.2
293.15 K, x1 = 0.6225 | 14.18
293.15 K, x1 = 0.693 | 14.47
293.15 K, x1 = 0.7683 | 14.21
293.15 K, x1 = 0.8489 | 13.31
293.15 K, x1 = 0.922 | 12.21
303.15 K, x1 = 0.0741 | 3.66
303.15 K, x1 = 0.1582 | 4.34
303.15 K, x1 = 0.2314 | 5.07
303.15 K, x1 = 0.3142 | 5.95
303.15 K, x1 = 0.3889 | 6.85
303.15 K, x1 = 0.4691 | 7.7
303.15 K, x1 = 0.5374 | 8.36
303.15 K, x1 = 0.6159 | 8.89
303.15 K, x1 = 0.6906 | 9.07
303.15 K, x1 = 0.7667 | 8.89
303.15 K, x1 = 0.8466 | 8.34
303.15 K, x1 = 0.9243 | 7.68
308.1 K, x1 = 0.349 | 5.39
308.1 K, x1 = 0.511 | 6.54
308.1 K, x1 = 0.677 | 7.21
308.1 K, x1 = 0.795 | 6.92
313.15 K, x1 = 0.0741 | 2.74
313.15 K, x1 = 0.1582 | 3.15
313.15 K, x1 = 0.2314 | 3.61
313.15 K, x1 = 0.3142 | 4.1
313.15 K, x1 = 0.3889 | 4.61
313.15 K, x1 = 0.4691 | 5.1
313.15 K, x1 = 0.5374 | 5.45
313.15 K, x1 = 0.6159 | 5.73
313.15 K, x1 = 0.6906 | 5.83
313.15 K, x1 = 0.7667 | 5.73
313.15 K, x1 = 0.8466 | 5.46
313.15 K, x1 = 0.9243 | 5.11

ClC(Cl)C(Cl)Cl + COC(C)=O
303.15 K, 101.3 kPa
Settings | viscosity [mPa·s]
x2 = 0.103 | 1.379
x2 = 0.1999 | 1.268
x2 = 0.3012 | 1.147
x2 = 0.3998 | 1.029
x2 = 0.5031 | 0.8951
x2 = 0.6017 | 0.764
x2 = 0.6999 | 0.6464
x2 = 0.8014 | 0.5324
x2 = 0.9019 | 0.4308

COCCOCCOC + CCCCCC
viscosity [mPa·s], 101.33 kPa
Settings | x1 = 0.1017 | x1 = 0.2006 | x1 = 0.3006 | x1 = 0.3974 | x1 = 0.4983 | x1 = 0.4984 | x1 = 0.5986 | x1 = 0.6954 | x1 = 0.8011 | x1 = 0.8957
298.15 K | 0.326 | 0.362 | 0.407 | 0.455 | – | 0.52 | 0.584 | 0.662 | 0.761 | 0.868
303.15 K | 0.31 | 0.344 | 0.385 | 0.43 | – | 0.49 | 0.548 | 0.62 | 0.71 | 0.806
308.15 K | 0.294 | 0.324 | 0.362 | 0.404 | 0.461 | – | 0.512 | 0.576 | 0.657 | 0.75
313.15 K | 0.28 | 0.308 | 0.345 | 0.383 | 0.434 | – | 0.482 | 0.541 | 0.616 | 0.699
318.15 K | 0.268 | 0.285 | 0.326 | 0.363 | 0.41 | – | 0.457 | 0.511 | 0.579 | 0.657

CCCCCCn1cc[n+](C)c1.F[B-](F)(F)F + CC(C)O
101 kPa
Settings | viscosity [mPa·s]
293.15 K, x1 = 0.7711 | 78.36
313.15 K, x1 = 0.08354 | 1.965
323.15 K, x1 = 0.238 | 3.035
323.15 K, x1 = 0.8507 | 28.15

COCCOCCOC + CC(C)CC(C)(C)C
viscosity [mPa·s], 101.33 kPa
Settings | x1 = 0.0931 | x1 = 0.1978 | x1 = 0.2916 | x1 = 0.4016 | x1 = 0.4538 | x1 = 0.5881 | x1 = 0.687 | x1 = 0.7926 | x1 = 0.8997
298.15 K | 0.49 | 0.511 | 0.538 | 0.58 | 0.602 | 0.668 | 0.726 | 0.808 | 0.887
303.15 K | 0.46 | 0.481 | 0.507 | 0.545 | 0.564 | 0.624 | 0.677 | 0.741 | 0.821
308.15 K | 0.435 | 0.455 | 0.478 | 0.512 | 0.529 | 0.584 | 0.632 | 0.69 | 0.762
313.15 K | 0.413 | 0.43 | 0.451 | 0.482 | 0.5 | 0.548 | 0.592 | 0.647 | 0.712
318.15 K | 0.389 | 0.405 | 0.425 | 0.453 | 0.468 | 0.512 | 0.553 | 0.601 | –

COC(=O)OC + CC(C)O
101.3 kPa
Settings | viscosity [mPa·s]
293.15 K, x1 = 0.0526 | 1.968
293.15 K, x1 = 0.0934 | 1.706
293.15 K, x1 = 0.2033 | 1.212
293.15 K, x1 = 0.3129 | 0.943
293.15 K, x1 = 0.4065 | 0.817
293.15 K, x1 = 0.5 | 0.74
293.15 K, x1 = 0.6079 | 0.686
293.15 K, x1 = 0.7026 | 0.647
293.15 K, x1 = 0.8048 | 0.609
293.15 K, x1 = 0.9008 | 0.593
293.15 K, x1 = 0.9507 | 0.601
298.15 K, x1 = 0.0498 | 1.733
298.15 K, x1 = 0.0979 | 1.454
298.15 K, x1 = 0.2031 | 1.046
298.15 K, x1 = 0.2999 | 0.844
298.15 K, x1 = 0.3972 | 0.74
298.15 K, x1 = 0.4892 | 0.69
298.15 K, x1 = 0.5938 | 0.654
298.15 K, x1 = 0.6971 | 0.625
298.15 K, x1 = 0.7983 | 0.589
298.15 K, x1 = 0.9012 | 0.567
298.15 K, x1 = 0.9451 | 0.567
303.15 K, x1 = 0.0437 | 1.537
303.15 K, x1 = 0.1028 | 1.287
303.15 K, x1 = 0.2013 | 0.992
303.15 K, x1 = 0.3062 | 0.802
303.15 K, x1 = 0.384 | 0.713
303.15 K, x1 = 0.4951 | 0.642
303.15 K, x1 = 0.5998 | 0.606
303.15 K, x1 = 0.7053 | 0.581
303.15 K, x1 = 0.8047 | 0.562
303.15 K, x1 = 0.9062 | 0.545
303.15 K, x1 = 0.937 | 0.542
313.15 K, x1 = 0.0507 | 1.147
313.15 K, x1 = 0.0997 | 1.005
313.15 K, x1 = 0.1984 | 0.799
313.15 K, x1 = 0.2975 | 0.668
313.15 K, x1 = 0.4001 | 0.592
313.15 K, x1 = 0.4884 | 0.553
313.15 K, x1 = 0.5959 | 0.522
313.15 K, x1 = 0.7017 | 0.506
313.15 K, x1 = 0.8014 | 0.494
313.15 K, x1 = 0.9053 | 0.49
313.15 K, x1 = 0.9492 | 0.491

CNc1ccccc1 + c1ccccc1
298.15 K, 101 kPa
Settings | viscosity [mPa·s]
x2 = 0.069 | 1.851
x2 = 0.11 | 1.728
x2 = 0.17 | 1.601
x2 = 0.264 | 1.433
x2 = 0.376 | 1.226
x2 = 0.387 | 1.202
x2 = 0.428 | 1.156
x2 = 0.513 | 1.055
x2 = 0.582 | 0.966
x2 = 0.697 | 0.842
x2 = 0.802 | 0.747
x2 = 0.852 | 0.71
x2 = 0.93 | 0.656
